Experimental data: patent US20160311791A1, “NOVEL TRICYCLIC CALCIUM SENSING RECEPTOR ANTOGONISTS FOR THE TREATMENT OF OSTEOPOSOSIS” (MERCK SHARP & DOHME CORP., priority 2013, published 2016)

Key:
calcium sensing receptor = target: T1, calcium sensing receptor (Homo sapiens, UniProt P41180); assay: Calcium sensing receptor antagonist activity (test not specified)
T1 sequence (P41180 20-1078): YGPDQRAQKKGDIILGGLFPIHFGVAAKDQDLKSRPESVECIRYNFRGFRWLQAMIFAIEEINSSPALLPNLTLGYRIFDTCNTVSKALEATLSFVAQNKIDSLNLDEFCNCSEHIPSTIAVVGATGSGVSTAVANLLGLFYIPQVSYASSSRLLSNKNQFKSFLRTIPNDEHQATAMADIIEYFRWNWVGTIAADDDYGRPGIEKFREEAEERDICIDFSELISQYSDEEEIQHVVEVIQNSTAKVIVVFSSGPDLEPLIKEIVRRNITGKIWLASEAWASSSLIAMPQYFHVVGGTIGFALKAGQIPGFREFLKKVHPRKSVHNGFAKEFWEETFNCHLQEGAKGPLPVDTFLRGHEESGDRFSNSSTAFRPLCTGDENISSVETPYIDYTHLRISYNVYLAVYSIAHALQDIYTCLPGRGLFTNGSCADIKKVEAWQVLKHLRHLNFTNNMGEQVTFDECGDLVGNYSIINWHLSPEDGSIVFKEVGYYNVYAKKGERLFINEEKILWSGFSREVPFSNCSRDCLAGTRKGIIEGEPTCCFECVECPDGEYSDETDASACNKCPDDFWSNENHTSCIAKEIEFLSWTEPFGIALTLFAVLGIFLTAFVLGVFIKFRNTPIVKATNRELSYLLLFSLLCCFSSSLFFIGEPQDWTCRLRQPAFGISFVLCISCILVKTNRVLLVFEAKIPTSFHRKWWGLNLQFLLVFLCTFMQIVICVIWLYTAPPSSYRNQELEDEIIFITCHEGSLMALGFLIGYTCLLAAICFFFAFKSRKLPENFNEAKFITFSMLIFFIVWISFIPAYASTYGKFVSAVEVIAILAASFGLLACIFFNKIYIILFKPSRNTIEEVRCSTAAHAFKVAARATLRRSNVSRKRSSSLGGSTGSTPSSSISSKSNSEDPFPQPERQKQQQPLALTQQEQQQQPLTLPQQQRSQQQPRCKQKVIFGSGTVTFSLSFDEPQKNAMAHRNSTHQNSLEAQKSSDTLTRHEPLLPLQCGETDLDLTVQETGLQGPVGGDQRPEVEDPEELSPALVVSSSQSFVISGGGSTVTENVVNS

human CaSR = target: T2, human CaSR (Homo sapiens, UniProt P41180); assay: CaSR binding assay (radioligand, HEK293 membranes); parameters: expressed in transfected cells; host or cells: HEK293 cell membranes; settings: radio-labeled compound used as ligand; read-out: apparent Kd
T2 sequence (P41180 20-1078): T1 sequence (P41180 20-1078)
Protocol: Procedures for CaSR Binding Assay
Membrane preparations from HEK293 cells expressing the human CaSR were generated. The cells were cultured and then washed twice with 1×PBS. The cells were dissociated by adding 4 ml pre-warmed 0.25% Trypsin-EDTA, and by incubating the flask at RT for 3 minutes. 10 ml media was dispensed over the cell layer surface, and the cells were harvested into a centrifuge tube. The cells were centrifuged at 200×g for 10 minutes. The cell pellet was suspended in 30 ml of membrane preparation buffer and then homogenized on ice twice at 16000 rpm for 10 seconds. Following homogenization, the membrane was collected by centrifuge at 40000×g for 30 minutes at 4° C., washed twice with 30 ml membrane preparation buffer, and centrifuged again at 40000×g for 10 minutes. The membrane pellet was suspended in 30 ml membrane preparation buffer (50 mM Tris, pH7.0, 10 mM MgCl, Proteinase inhibitor (Roche, REF 04693116001), and then homogenized on ice once at 16000 rpm for 10 seconds. The total protein concentration was measured using a BCA kit. The membrane protein concentration was adjusted to 2.4 mg/ml and then diluted with binding buffer (10 mM HEPES, pH7.4, 130 mM NaCl, 0.4 mM CaCl2, 5 mM MgCl2, 1 mM EGTA, 10 mM glucose, 0.1% BSA) to 0.33 μg/μl. The final amount in the binding assay was 20 μg/well. Test compound was serially diluted manually by using BIOHIT multi-channel pipettor in 100% DMSO (10 point, 3-fold dilution of each compound from 5.0 μM in 100% DMSO). 4 μl of serially diluted compound was manually transferred into a second assay microplate that contained 196 μl of binding assay buffer to create the intermediate dilution plate. For background, 20 μl of assay buffer was added to each control well. […] The binding reaction used a 100 μl reaction volume consisting of 10 μl of test compound, 30 μl of diluted radio-labelled compound, and 60 μl of membrane solution (0.33 μg/μl). The reaction mixture was incubated at room temperature for one hour. The Grade GF/C filter plates were presoaked in 0.3% PEI (protect from light) for 60 minutes at room temperature. The plate was then washed three times with ice-cold wash buffer (25 mM Tris-HCl, PH7.4, 130 mM NaCl, 5 mM MgCl2, 0.4 mM CaCl2, 0.1% BSA) prior to filtration of the binding samples. The binding reaction was terminated by rapid filtration of 100 μl binding mixture through the GF/C plate. Plates were then washed 6 times with ice-cold wash buffer. Filter plates were dried with a hair dryer for 20 minutes. 60 μl/well MICROSCINT 20 (a cocktail for microplates) was added to the bottom of sealed filters, then the filters were sealed at the top with tape. Bound radioactivity was counted in a TOPCOUNT scintillation counter. Exemplary compounds bind in the 1-500 nM range.

- Kd (human CaSR): 400 nM
Compound: CC(C)(CC1Cc2ccccc2C1)NC[C@@H](O)COc1cc(-c2ccc(C(=O)O)cc2)ccc1F [Example 25, (R)-3′-(3-((1-(2,3-dihydro-1H-inden-2-yl)-2-methylpropan-2-yl)amino)-2-hydroxypropoxy)-4′-fluoro-[1,1′-biphenyl]-4-carboxylic acid]
- calcium sensing receptor antagonist activity (calcium sensing receptor): shows calcium sensing receptor antagonist activity
